Experimental data published in publication PMC6274539, “Photoactivatable Caged Prodrugs of VEGFR-2 Kinase Inhibitors” (Molecules, 2016).
Like-named read-outs stand apart in the source and are kept apart here.

Tests used:
PC-3 cells [1] = assay: cellular growth (proliferation) assay, resazurin; format: cell-based
Description: Growth assays on VEGFR-2 dependent PC-3 cells were performed.
PC-3 cells were purchased from CLS Cell Lines Service GmbH (Eppelheim, Germany). The cells were grown in DMEM:Hams F12 (1:1) medium with 5% FCS. PC-3 cells were incubated in a 5% CO2 humidified atmosphere at 37 °C.
The cells were grown in cell flasks until approximately 90% confluence and then seeded to give 13000 cells in 100 μL per well into 96-well CulturePlates™ (Perkin Elmer). In addition to the test plates, one plate was prepared for reference measurement at day zero. All plates were incubated for 24 h at 37 °C in a humidified atmosphere with 5% CO2. Compounds 1, 3, 4, and 5 were dissolved in 100% DMSO (v/v) and added to the test plates. The final DMSO concentration in the assay was 0.5% (v/v). Viability of the cells in the day zero control plates were determined on the same day without adding any compounds. For viability measurement the resazurin assay was used. The shift in the fluorescence signal was measured at the LS55 Fluorescence spectrometer (Perkin Elmer). For the photoactivation experiments the test plates were irradiated at 365 nm for 5 min (LED source: 8× Nichia NCSU033B, Sahlmann Photochemical Solutions, 50%, 1.1 kW/m^2). Test plates were incubated for further 48 h and cell viability was defined as described above. Measured raw data was converted into percent of cell growth by using the high control (0.5% DMSO (v/v) without compound) and the day zero control. For dose-response studies, 11 different concentrations of compounds were tested in duplicates. IC50 values were calculated using the 4-parameter logarithmic fit option of GraphPad Prism 5.

IR-HIS = IR-HIS (Homo sapiens, UniProt P06213); assay: kinase profiling, radioactive filter binding assay; format: biochemical; settings: 0.1 µM compound, assay duplicates; read-out: residual activity of IR-HIS, mean percentage activity
Chain of IR-HIS (P06213 28-1382): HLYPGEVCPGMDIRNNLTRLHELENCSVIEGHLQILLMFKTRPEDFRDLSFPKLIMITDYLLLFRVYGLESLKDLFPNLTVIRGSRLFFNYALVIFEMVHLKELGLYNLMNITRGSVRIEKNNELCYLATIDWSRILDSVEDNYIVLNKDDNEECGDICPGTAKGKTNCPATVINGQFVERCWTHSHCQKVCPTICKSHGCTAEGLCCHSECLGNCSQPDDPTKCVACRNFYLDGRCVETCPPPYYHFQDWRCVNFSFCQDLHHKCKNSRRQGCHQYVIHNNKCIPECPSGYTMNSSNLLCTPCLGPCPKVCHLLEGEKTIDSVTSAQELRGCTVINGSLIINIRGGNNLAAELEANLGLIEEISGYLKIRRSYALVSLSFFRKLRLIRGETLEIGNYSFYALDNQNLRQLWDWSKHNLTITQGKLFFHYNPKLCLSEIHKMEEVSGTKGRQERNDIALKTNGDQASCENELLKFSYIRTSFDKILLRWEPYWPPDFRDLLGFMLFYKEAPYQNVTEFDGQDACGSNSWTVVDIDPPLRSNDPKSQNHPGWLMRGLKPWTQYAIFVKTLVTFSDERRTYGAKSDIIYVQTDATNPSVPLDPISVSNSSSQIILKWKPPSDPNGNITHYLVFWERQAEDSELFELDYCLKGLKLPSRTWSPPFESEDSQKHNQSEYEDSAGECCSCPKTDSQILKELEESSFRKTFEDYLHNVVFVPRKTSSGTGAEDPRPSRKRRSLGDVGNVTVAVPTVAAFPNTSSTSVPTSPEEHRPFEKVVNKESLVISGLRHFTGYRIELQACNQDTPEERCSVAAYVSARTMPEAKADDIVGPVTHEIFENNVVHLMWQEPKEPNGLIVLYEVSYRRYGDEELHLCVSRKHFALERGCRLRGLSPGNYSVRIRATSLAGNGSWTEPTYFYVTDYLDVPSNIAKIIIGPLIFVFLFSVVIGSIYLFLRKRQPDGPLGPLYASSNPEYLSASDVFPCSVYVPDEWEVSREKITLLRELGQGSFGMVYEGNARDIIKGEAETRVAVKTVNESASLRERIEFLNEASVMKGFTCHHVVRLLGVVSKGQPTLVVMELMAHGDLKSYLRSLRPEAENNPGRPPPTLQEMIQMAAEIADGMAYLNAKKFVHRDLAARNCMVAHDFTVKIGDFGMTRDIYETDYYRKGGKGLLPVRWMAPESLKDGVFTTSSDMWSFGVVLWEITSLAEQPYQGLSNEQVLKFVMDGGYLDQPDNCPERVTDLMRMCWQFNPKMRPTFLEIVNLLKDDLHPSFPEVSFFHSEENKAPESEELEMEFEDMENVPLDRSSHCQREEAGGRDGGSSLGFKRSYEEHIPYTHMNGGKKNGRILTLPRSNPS
Method in brief: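 [33P]ATP filter-binding radiometric assay; compound 0.1 µM (DMSO); duplicates, mean % residual activity ± SD.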

[2] = UV stability at 365 nm in DMSO (HPLC, LC-MS); settings: 1 mM in DMSO, 5.4 W, up to 10 min
Description: HPLC and LC-MS analysis were used for content determination.
Aliquots were diluted 1:10 with methanol and analyzed by HPLC.

PC-3 cells [3] = assay: cellular uptake by fluorescence microscopy (cell staining); format: cell-based; settings: live PC-3 cells, 10 µM, 30 min, autofluorescence
Description: Next, we investigated the cellular bioavailability of the caged prodrugs. For this purpose, we used the autofluorescence of the carbazole 3 and its caged derivative 5. The emission spectra of both compounds are shown in the Supplementary Figure S6. The fluorescence microscopy was used to explore the uptake of the compounds into the cells. Live PC-3 cells were stained with 10 µM solutions of 3 or 5, and then fixed with formalin. Subsequently, the cell nuclei were counterstained with 1 µg/mL DAPI.
PC-3 cells were stained with the carbazole 3 and its caged derivative 5. For this purpose, the cells were seeded to give 15,000 cells in 50 µL per well into 96-well half area microplate (Ref.: 675986, Greiner bio-one, Kremsmünster, Austria). The plate was incubated for 48 h at 37 °C in a humidified atmosphere with 5% CO2. Compounds 3 and 5 were dissolved in DMEM:Hams F12 (1:1) medium with 5% FCS and added to the cells to give the endconcentration of 10 µM, respectively. The cells were incubated with the compounds for 30 min at 37 °C. After that, the cells were washed twice with PBS and fixed with 3.3% formalin for 15 min. […] After 30 min incubation at 37 °C, the cells were washed with PBS and the fluorescence images were taken at the ImageXpress® Micro XL (Molecular Devices, Sunnyvale CA, USA). […]

[4] = Homo sapiens, PC-3, light or radiation study, 48 h, no UV irradiation, cell growth after 48 h, read-out: GI50 without Irradiation
[5] = Homo sapiens, PC-3, light or radiation study, irradiated at 365 nm, 5 min, 1.1 kW/m^2, cell growth after 48 h, read-out: GI50 after Irradiation

| Structure (SMILES) | GI50 (PC-3 cells [1]; [4]) [nM] | GI50 (PC-3 cells [1]; [5]) [nM] | remaining activity at 0.1 µM (IR-HIS) [%] | GI50 (PC-3 cells [1]; irradiated at 365 nm, 5 min, 1.1 kW/m^2, cell growth after 48 h, read-out: GI50 after Irradiation) [nM] | UV stability under irradiation at 365 nm [2] | cellular uptake (PC-3 cells [3]) | melting point [°C] |
| --- | --- | --- | --- | --- | --- | --- | --- |
| COc1cc(C2=C(c3c[nH]c4ccccc34)C(=O)NC2=O)cc(OC)c1OC [Compound 1, 3-(1H-Indol-3-yl)-4-(3,4,5-trimethoxyphenyl)-1H-pyrrole-2,5-dione] | 6400 | 2900 |  |  |  |  |  |
| COc1cc2c3c(c4c5ccccc5[nH]c4c2c(OC)c1OC)C(=O)NC3=O [Compound 3, 5,6,7-Trimethoxybenzo[a]pyrrolo[3,4-c]carbazole-1,3(2H,8H)-dione] | 200 | 380 | 88 | 400 | quite stable | taken up into the cells, but not within the cell nuclei | 275 |
